Test results taken from patent publication US20210340563A1, “DONOR T-CELLS WITH KILL SWITCH” (CSL BEHRING LLC, priority 2018, published 2021).

Key:
[1] = system: CEM cells; experiment: negative selection with MTX or MPA on CEM cells; format: cell-based; settings: 1 μM of MPA or 0.3 μM of MTX or 10 μM of MPA; for GFP-population of transduced cells under MPA or MTX: CEM experiment
[2] = system: K562 cells; experiment: negative selection with MTX on K562 cells; format: cell-based, human; settings: 0.3 μM of MTX, day 0 to day 14
Description: Transduced or transfected K562 cells (such as those from Example 1) were cultured with or without MTX from day 0 to day 14. The medium was refreshed every 3 to 4 days. GFP was analyzed on a flow machine and the InDel % was analyzed by T7E1 assay. […] On the other hand, the population of cells was steady without MTX. FIG. 14B illustrates that the transfected K562 cells were eliminated under treatment with 0.3 μM of MTX at a faster pace as compared with the HPRT-knockdown population.
K562 cells were transduced with either (i) a TL20cw-GFP virus soup at dilution factor of 16, (ii) a TL20cw-Ubc/GFP-7SK/sh734 virus soup at a dilution factor of 16 (one sequentially encoding GFP and a shRNA designed to knockdown HPRT); or (iii) a TL20cw-7SK/sh734-UBC/GFP virus soup at a dilution factor of 16 (one sequentially encoding a shRNA designed to knockdown HPRT and GFP) (see FIG. 16). K562 cells were also transduced by a TL20cw-7SK/sh734-UBC/GFP virus soup at a dilution factor of 1024 (one encoding a nucleic acid encoding a shRNA designed to knockdown HPRT) (also shown in FIG. 16). Three days following transduction, all cells were cultured with medium containing 0.3 μM of MTX 3. […] The relative sh734 expression per vector copy number (VCN) for sh734-GFP-transduced cells and GFP-sh734-transduced cells were measured.

[3] = system: K562 cells; experiment: ex vivo 6TG selection of HPRT knockdown/knockout K562 cells; format: cell-based, human
Description: These initial preliminary experiments were performed in K562 cells (human immortalized myelogenous leukemia line) (rsh7-GFP=short hairpin to HPRT/GFP lentiviral vector to knockdown HPRT; nanoRNP-HPRT=CRISPR/Cas9 ribonucleoprotein nanocapsules to knockout HPRT).
K562 cells were transduced with an expression vector including a nucleic acid sequence designed to knockdown HPRT and a nucleic acid sequence encoding the green fluorescent protein (GFP) (MOI=1/2/5); or were transfected with a nanocapsule including CRISPR/Cas9 and a sgRNA to knockout HPRT (100 ng/5×10^4 cells) at day zero (0). 6TG was added into the medium from day 3 through day 14. The medium was refreshed every 3 to 4 days. GFP was analyzed on a flow machine and the InDel % as analyzed with a T7E1 assay.

[4] = system: CEM cells; experiment: 6TG selection of HPRT knockdown/knockout CEM cells; format: cell-based
Description: CEM cells were transduced with an expression vector including a nucleic acid sequence designed to knockdown HPRT and a nucleic acid sequence encoding the green fluorescent protein or transfected with a nanocapsule including CRISPR/Cas9 and a sgRNA to HPRT at day 0. 6TG was added into the medium from day 3 to day 17. The medium was refreshed every 3 to 4 days. GFP as analyzed on a flow machine and the InDel % is analyzed by a T7E1 assay. FIG. 13A illustrates that the GFP+ population of transduced K562 cells increased from day 3 to day 17 under treatment of 6TG while GFP+ population was almost steady without. […] It should be noted that 6TG selection process occurred faster on HPRT knockout cells rather than HPRT knockdown cells (MOI=1) at the same concentration of 6TG from day 3 to day 17.

[5] = system: Jurkat cells; experiment: 6-TG resistance of HPRT knockout Jurkat cells, luminescence (ATP detection) cell viability; format: cell-based
Description: (§1) Jurkat cells were electroporated with a ribonucleoprotein (RNP) complex containing guide RNA (gRNA; GS-4; designated IDT-4) together with the Cas9 and tracrRNA. Cells which were confirmed to be transfected with the gRNA via tracr RNA were purified using fluorescence activated cells sorting (FACS) and subsequently cultured for 72 hours. Increasing concentrations of 6-thioguanine (6-TG) were then administered to the transduced cultured cells to assess resistance. Wild type (unmodified) Jurkat cells were used as a control.
Luminescence (ATP detection) was used to assess cell viability.

[6] = system: HPRT protein; experiment: Western blot for HPRT protein in Jurkat cells; format: cell-based; settings: modified Jurkat cells; actin loading control
Description: as §1
Unmodified (WT) and IDT-4 modified Jurkat cells were also analyzed for HPRT protein using Western blot (see FIG. 25). […] Actin protein detection (bottom panel) was used as a protein loading control.

[7] = system: Jurkat cells; experiment: methotrexate dose response of HPRT knockout Jurkat cells; format: cell-based; settings: MTX 0.00625 and 0.0125 μM, cultured for 5 days
Description: Jurkat cells (unmodified; WT) were cultured with increasing concentrations of methotrexate (MTX) to determine the MTX dosage window required to kill WT cells (see FIG. 28). A dose range of between 0.00625 and 0.025 μM MTX was selected for subsequent assessment of HPRT Knockout (IDT-4 modified) Jurkat cells.
Dose response of HPRT Knockout (IDT-4 modified) Jurkat cells to MTX was compared to unmodified Jurkat cells (WT) to determine sensitivity to MTX (see FIG. 29).

[8] = 900 nM of 6TG compared with 300/600 nM of 6TG

COc1c(C)c2c(c(O)c1C/C=C(\C)CCC(=O)O)C(=O)OC2 [MPA, mycophenolic acid]
HPRT knockout population of CEM cells under MPA or MTX [1]: eliminated at a faster pace
GFP-population of transduced cells under MPA or MTX [1]: decreased

CN(Cc1cnc2nc(N)nc(N)c2n1)c1ccc(C(=O)N[C@@H](CCC(=O)O)C(=O)O)cc1 [MTX, methotrexate]
GFP-population of transduced K562 cells under MTX [2]: decreased
transfected (HPRT knockout) K562 cells under MTX [2]: eliminated
HPRT knockout population of CEM cells under MPA or MTX [1]: eliminated at a faster pace
GFP-population of transduced cells under MPA or MTX [1]: decreased

Nc1nc2nc[nH]c2c(=S)[nH]1 [Vector 6TG, 6-thioguanine]
speed of selection of HPRT knockout K562 cells [3, 8]: faster selection
HPRT knockout population of K562 cells under treatment with 6TG (InDel %, T7E1 assay) ([3]; CRISPR/Cas9 nanocapsule transfected, day 3 to 14): increased
GFP+ population of transduced K562 cells under treatment of 6TG ([3]; HPRT knockdown vector with GFP, day 3 to day 14): increased
speed of selection of HPRT knockout CEM cells [4, 8]: faster selection
GFP+ population of transduced cells under treatment of 6TG ([4]; CEM experiment, day 3 to day 17): increased
HPRT knockout population of CEM cells under treatment of 6TG ([4]; day 3 to 17): increased
cell viability (luminescence) of unmodified (wild type) Jurkat cells ([5]; increasing concentrations of 6-TG): decrease in cell viability

IDT-4: lead HPRT guide RNA, SEQ ID NO: 36, GGTTATGACCTTGATTTATT; used as Cas9 RNP (used with tracrRNA as Cas9 RNP, further chemistry not given here)
cell viability (luminescence) of gRNA-modified Jurkat cells with increasing 6-TG ([5]; 6-TG tested up to 10 uM): resistance to increasing doses of 6-TG
HPRT protein level by Western blot [6]: undetectable levels of HPRT
sensitivity to MTX compared to wild type Jurkat cells [7]: increased sensitivity to MTX
